Data taken from patent US8835659B2, “Polysubstituted benzofurans and medicinal applications thereof” (Ikerchem, S.L., priority 2010, dated 2014).

Biological target: human SIRT1 (Homo sapiens (Human), UniProt Q96EB6)
Assay: SIRT1 in vitro deacetylation assay (Fluor-de-Lys, acetylated AMC-labeled p53 peptide)
Assay type: biochemical
Settings: 50 μM substrate peptide, 500 μM NAD+, 30° C., 2 h; for Emax: SIRT1 activation, read-out: Max (%), percentage of maximum activation achieved; for EC1.5 (concentration raising enzyme activity by 50%): concentration required to increase the enzyme activity by 50%, read-out: EC1.5 (SIRT1 activators); for IC50: concentration reducing enzyme activity by 50%, read-out: IC50 (SIRT1 inhibitors)
Protocol: The inhibitory activity is measured as the concentration of compound required to reduce the enzyme activity by 50% (IC50).
Activation in this assay is measured both as the concentration of compound required to increase the enzyme activity by 50% (EC1.5) as well as by the percentage of maximum activation achieved (Max %) (see, FIG. 1).
The reactions were carried out in a 96-well microplate for fluorometry in a 50 μl reaction volume. After the deacetylation reaction, Fluor-de-Lys-Developer II (BioMol. Cat. #KI-176) was added to each well to digest the deacetylated substrate, thus producing the fluorescent signal. The reaction was allowed to develop for 45 minutes at 30° C. with 5% CO2; then the fluorescent signal was measured with an excitation wavelength at 360 nm and an emission wavelength at 460 nm in a microplate-reading fluorometer (GeminiXS; Molecular Devices, Sunnyvale, Calif.). […] All experiments were performed in triplicate.

Chain of human SIRT1 (Q96EB6 whole entry): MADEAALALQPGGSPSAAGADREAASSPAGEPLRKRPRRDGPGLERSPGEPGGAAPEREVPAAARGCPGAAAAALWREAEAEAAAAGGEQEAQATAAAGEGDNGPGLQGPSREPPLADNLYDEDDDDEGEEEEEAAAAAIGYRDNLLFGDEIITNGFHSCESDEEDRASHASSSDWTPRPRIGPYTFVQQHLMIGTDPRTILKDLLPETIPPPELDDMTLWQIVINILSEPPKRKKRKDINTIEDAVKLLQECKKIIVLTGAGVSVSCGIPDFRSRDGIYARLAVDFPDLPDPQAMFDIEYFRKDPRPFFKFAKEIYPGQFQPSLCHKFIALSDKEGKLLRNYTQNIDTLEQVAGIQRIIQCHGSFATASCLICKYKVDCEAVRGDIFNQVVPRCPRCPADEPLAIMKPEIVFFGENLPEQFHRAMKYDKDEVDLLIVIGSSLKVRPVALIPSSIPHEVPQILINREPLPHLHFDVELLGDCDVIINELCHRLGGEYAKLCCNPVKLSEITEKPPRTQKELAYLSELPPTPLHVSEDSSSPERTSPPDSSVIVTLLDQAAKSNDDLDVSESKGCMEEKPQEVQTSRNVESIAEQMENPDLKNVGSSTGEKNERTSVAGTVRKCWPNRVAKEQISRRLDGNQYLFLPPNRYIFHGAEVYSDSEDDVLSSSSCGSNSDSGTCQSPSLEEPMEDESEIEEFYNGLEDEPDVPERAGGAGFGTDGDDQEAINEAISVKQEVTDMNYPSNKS

SMILES | Emax [%] | EC1.5 (concentration raising enzyme activity by 50%) [nM] | IC50 [µM]
Oc1cc(O)cc(-c2cc3ccc(O)cc3o2)c1 [5-(6-hydroxy-1-benzofuran-2-yl)benzene-1,3-diol, reference compound] | 451 | 11.5 | 
COc1ccc(-c2cc3c(O)cc(O)cc3o2)c(OC)n1 [Example 12, 2-(2,6-dimethoxypyridin-3-yl)benzofuran-4,6-diol] | 130 |  | 
Oc1ccc(-c2coc3cc(O)cc(O)c23)cc1 [Example 15, 3-(4-hydroxyphenyl)-1-benzofuran-4,6-diol] |  |  | 22.8
Oc1cc(O)c2c(-c3cc(F)cc(F)c3)coc2c1 [Example 16, 3-(3,5-difluorophenyl)-1-benzofuran-4,6-diol] |  |  | 274
Oc1cc(O)cc(-c2cc3c(O)cc(O)cc3o2)c1 [Example 8, 2-(3,5-dihydroxyphenyl)-1-benzofuran-4,6-diol] | 407 | 1.32 | 
Oc1cc(O)c2cc(-c3cc(F)cc(F)c3)oc2c1 [Example 13, 2-(3,5-difluorophenyl)benzofuran-4,6-diol] |  |  | 36.7
Oc1ccc(C=Cc2cc(O)cc(O)c2)cc1 [Resveratrol, resveratrol, reference compound] | 475 |  | 
Oc1cc(O)c2c(-c3cc(F)cc(F)c3)c(Br)oc2c1 [Example 20, 2-bromo-3-(3,5-difluorophenyl)benzofuran-4,6-diol] |  |  | 76.3
Oc1cc(O)c2c(-c3ccc(F)cc3)coc2c1 [Example 19, 3-(4-fluorophenyl)benzofuran-4,6-diol] |  |  | 192
Oc1cc(O)c2cc(-c3cc(O)c(O)c(O)c3)oc2c1 [Example 11, 5-(4,6-dihydroxy-1-benzofuran-2-yl)benzene-1,2,3-triol] |  |  | 1.84
Oc1ccc(-c2cc3c(O)cc(O)cc3o2)cc1 [Example 9, 2-(4-hydroxyphenyl)-1-benzofuran-4,6-diol] | 444 | 3.55 | 
Oc1cc(O)c2cc(-c3ccc(F)cc3)oc2c1 [Example 10, 2-(4-fluorophenyl)-1-benzofuran-4,6-diol] | 279 | 13.5 | 
